Experimental data from patent publication US20260116868A1 (Arcus Biosciences, Inc., priority 2023, published 2026).
pIC50: −log10 of the molar value.

Each compound was assayed against T1, Cbl-b (Homo sapiens, UniProt Q13191) (assay: Cbl-b probe displacement HTRF binding assay). Settings: 0.4 nM Cbl-b, 150 nM BODIPY probe.
T1 construct: biotin (biotinylated protein)
Procedure, shortened: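 Compound competes with BODIPY probe (150 nM) for biotinylated Cbl-b (0.4 nM) in HEPES/NaCl/Triton/TCEP/BSA buffer; 60 min preincubation, 15 min with probe, room temperature. Tb-streptavidin HTRF read; % displacement vs DMSO and no-protein controls, IC50 from four-parameter fit.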

T1 sequence (Q13191 whole entry, species assumed): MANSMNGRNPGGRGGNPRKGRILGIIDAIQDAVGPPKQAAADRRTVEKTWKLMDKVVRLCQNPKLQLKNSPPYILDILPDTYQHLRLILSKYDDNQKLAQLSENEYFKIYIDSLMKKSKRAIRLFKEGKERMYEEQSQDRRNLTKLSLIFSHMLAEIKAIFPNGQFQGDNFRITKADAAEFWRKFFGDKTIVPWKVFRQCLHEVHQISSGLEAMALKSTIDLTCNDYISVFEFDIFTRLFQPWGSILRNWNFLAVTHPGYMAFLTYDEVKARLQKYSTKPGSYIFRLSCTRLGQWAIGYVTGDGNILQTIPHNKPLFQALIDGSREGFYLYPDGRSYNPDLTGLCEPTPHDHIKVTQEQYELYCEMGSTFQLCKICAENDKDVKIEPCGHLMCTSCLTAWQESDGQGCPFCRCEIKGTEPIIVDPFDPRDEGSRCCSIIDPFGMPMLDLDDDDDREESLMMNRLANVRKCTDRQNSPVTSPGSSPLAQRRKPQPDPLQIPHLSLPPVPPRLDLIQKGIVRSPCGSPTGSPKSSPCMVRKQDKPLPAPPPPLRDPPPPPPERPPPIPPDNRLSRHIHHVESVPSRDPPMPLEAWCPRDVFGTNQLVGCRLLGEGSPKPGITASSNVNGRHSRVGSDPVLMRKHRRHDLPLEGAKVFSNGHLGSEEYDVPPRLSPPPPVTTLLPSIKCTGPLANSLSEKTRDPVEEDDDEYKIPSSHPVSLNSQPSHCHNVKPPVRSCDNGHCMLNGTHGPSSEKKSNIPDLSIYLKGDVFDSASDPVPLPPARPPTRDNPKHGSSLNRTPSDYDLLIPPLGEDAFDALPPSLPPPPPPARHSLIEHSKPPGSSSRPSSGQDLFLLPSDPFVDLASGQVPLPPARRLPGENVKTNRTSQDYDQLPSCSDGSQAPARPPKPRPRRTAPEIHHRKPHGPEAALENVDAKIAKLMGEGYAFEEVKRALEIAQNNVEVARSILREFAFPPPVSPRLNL

Row | Structure (SMILES) | pIC50
1 | CCOc1cc(-c2ccc(Cl)cc2C(=O)N2CC(F)(F)C2)cc(NC(=O)c2cc(CNC[C@@H]3CCCO3)cn(C3CC3)c2=O)n1 [Example 225] | > 7.00
2 | CO[C@@H](C)CNCc1cc(C(=O)Nc2cc(-c3cc(F)c(Cl)cc3C(=O)N3CC(F)(F)C3)cc(C3CC3)n2)c(=O)n(C2CC2)c1 [Example 215] | > 7.00
3 | CC(C)Oc1cc(-c2ccc(OC(F)F)cc2C(=O)N2CC(F)(F)C2)cc(NC(=O)c2cc(CN[C@@H](C)C3CCC3)cn(C3CC3)c2=O)n1 [Example 98] | > 7.00
4 | CCOc1cc(-c2ccc(C#N)cc2C(=O)N2CC(F)(F)C2)cc(NC(=O)c2cc(CNC[C@@H]3CCCO3)cn(C3CC3)c2=O)n1 [Example 212] | > 7.00
5 | N#Cc1cc(F)c(-c2cc(NC(=O)c3cc(CNC[C@@H]4CCCO4)cn(C4CC4)c3=O)nc(C3CC3)c2)c(C(=O)N2CC(F)(F)C2)c1 [Example 231] | > 7.00
6 | COc1ccc(-c2cc(NC(=O)c3cc(CNC[C@H](C)OC)cn(C)c3=O)nc(C3CC3)c2)c(C(=O)N2CC(F)C2)c1 [Example 301] | > 7.00
7 | CCOc1cc(-c2ccc(Cl)cc2C(=O)N2CC(F)(F)C2)cc(NC(=O)c2cc(CNC[C@H](C)OC)cn(C3CC3)c2=O)n1 [Example 123, N-(4-{4-chloro-2-[(3,3-difluoro-1-azetidinyl)carbonyl]phenyl}-6-ethoxy-2-pyridyl)-1-cyclopropyl-5-{[(S)-2-methoxypropylamino]methyl}-2-oxo-1,2-dihydronicotinamide] | > 7.00
8 | CCOc1cc(-c2c(F)cc(C#N)cc2C(=O)N2CC(F)(F)C2)cc(NC(=O)c2cc(CNC[C@H](C)OC)cn(C)c2=O)n1 [Example 120, N-[4-[4-cyano-2-(3,3-difluoroazetidine-1-carbonyl)-6-fluorophenyl]-6-ethoxypyridin-2-yl]-5-[[[(2S)-2-methoxypropyl]amino]methyl]-1-methyl-2-oxopyridine-3-carboxamide] | > 7.00
9 | O=C(Nc1cc(-c2c(F)cc(Cl)cc2C(=O)N2CC(F)(F)C2)cc(C2CC2)n1)c1cc(CNCC2CC2)cn(C2CC2)c1=O [Example 148, N-(4-{4-chloro-2-[(3,3-difluoro-1-azetidinyl)carbonyl]-6-fluorophenyl}-6-cyclopropyl-2-pyridyl)-1-cyclopropyl-5-{[(cyclopropylmethyl)amino]methyl}-2-oxo-1,2-dihydronicotinamide] | > 7.00
10 | CO[C@@H](C)CNC(C)c1cc(C(=O)Nc2cc(-c3ccc(C#N)cc3C(=O)N3CC(F)(F)C3)cc(C3CC3)n2)c(=O)n(C2CC2)c1 (stereo partly drawn) [Example 324] | > 7.00
11 | COCCNCc1cc(C(=O)Nc2cc(-c3ccc(Cl)cc3C(=O)N3CC(C#N)C3)cc(C3CC3)n2)c(=O)n(C2CC2)c1 [Example 303] | > 7.00
12 | CCOc1cc(-c2ccc(Cl)cc2C(=O)N2CC(F)C2)cc(NC(=O)c2cc(CNC[C@H](C)OC)cn(C3CC3)c2=O)n1 [Example 255] | > 7.00
13 | CCOc1cc(-c2ccc(OC(F)F)cc2C(=O)N2CC(F)C2)cc(NC(=O)c2cc(CNCC(C)C)cn(C3CC3)c2=O)n1 [Example 268] | > 7.00
14 | CCOc1cc(-c2ccc(Cl)cc2C(=O)N2CC(F)(F)C2)cc(NC(=O)c2cc(CNCC3CC3)cn(C3CC3)c2=O)n1 [Example 240] | > 7.00
15 | CCOc1cc(-c2c(F)cc(C#N)cc2C(=O)N2CC(F)(F)C2)cc(NC(=O)c2cc(CNC[C@@H]3CCCO3)cn(C)c2=O)n1 [Example 118, N-[4-[4-cyano-2-(3,3-difluoroazetidine-1-carbonyl)-6-fluorophenyl]-6-ethoxypyridin-2-yl]-1-methyl-2-oxo-5-[[[(2S)-oxolan-2-yl]methylamino]methyl]pyridine-3-carboxamide] | > 7.00
16 | Cn1cc(CNC[C@@H]2CCCCO2)cc(C(=O)Nc2cc(-c3ccc(C#N)cc3C(=O)N3CC(F)(F)C3)cc(C3CC3)n2)c1=O [Example 190] | > 7.00
17 | CC(C)Oc1cc(-c2ccc(C#N)cc2C(=O)N2CC(F)(F)C2)cc(NC(=O)c2cc(CN[C@@H](C)C(C)(C)F)cn(C3CC3)c2=O)n1 [Example 242] | > 7.00
18 | O=C(Nc1cc(-c2ccc(OC(F)F)cc2C(=O)N2CC(F)(F)C2)cc(OCC(F)F)n1)c1cc(CNC[C@@H]2COCCO2)cn(C2CC2)c1=O [Example 165] | > 7.00
19 | CO[C@@H](C)CNCc1cc(C(=O)Nc2cc(-c3c(F)cc(C#N)cc3C(=O)N3CC(F)(F)C3)cc(C3CC3)n2)c(=O)n(C)c1 [Example 228] | > 7.00
20 | O=C(Nc1cc(-c2ccc(OC(F)F)cc2C(=O)N2CC(F)(F)C2)cc(C2CC2)n1)c1cc(CNC[C@@H]2CCCO2)cn(C2CC2)c1=O [Example 325] | > 7.00
21 | COc1ccc(-c2cc(NC(=O)c3cc(CN[C@@H](C)C4CCC4)cn(C)c3=O)nc(OC(C)C)c2)c(C(=O)N2CC(F)C2)c1 [Example 274] | > 7.00
22 | COc1ccc(-c2cc(NC(=O)c3cc(CNCC(C)C)cn(C4CC4)c3=O)nc(OC(C)C)c2)c(C(=O)N2CC(F)(F)C2)c1 [Example 289] | > 7.00
23 | Cc1ccc(-c2cc(NC(=O)c3cc(CN[C@@H](C)C4CCC4)cn(C4CC4)c3=O)nc(OC(C)C)c2)c(C(=O)N2CC(F)C2)c1 [Example 277] | > 7.00
24 | COc1ccc(-c2cc(NC(=O)c3cc(CNCC(C)C)cn(C)c3=O)nc(C3CC3)c2)c(C(=O)N2CC(F)C2)c1 [Example 315] | > 7.00
25 | Cn1cc(CNC[C@@H]2COCCO2)cc(C(=O)Nc2cc(-c3ccc(OC(F)F)cc3C(=O)N3CC(F)(F)C3)cc(C3CC3)n2)c1=O [Example 110, N-(6-cyclopropyl-4-{2-[(3,3-difluoro-1-azetidinyl)carbonyl]-4-difluoromethoxyphenyl}-2-pyridyl)-5-[({[(R)-1,4-dioxan-2-yl]methyl}amino)methyl]-1-methyl-2-oxo-1,2-dihydronicotinamide] | > 7.00
26 | CO[C@@H](C)CNCc1cc(C(=O)Nc2cc(-c3ccc(Cl)cc3C(=O)N3CC(F)C3)cc(C3CC3)n2)c(=O)n(C2CC2)c1 [Example 248] | > 7.00
27 | CO[C@@H](C)[C@H](C)NCc1cc(C(=O)Nc2cc(-c3ccc(OC(F)F)cc3C(=O)N3CC(F)(F)C3)cc(OC(C)C)n2)c(=O)n(C2CC2)c1 [Example 205] | > 7.00
28 | CC(C)Oc1cc(-c2ccc(OC(F)F)cc2C(=O)N2CC(F)(F)C2)cc(NC(=O)c2cc(CN[C@@H](C)C3CC3)cn(C)c2=O)n1 [Example 115, N-(4-{2-[(3,3-difluoro-1-azetidinyl)carbonyl]-4-difluoromethoxyphenyl}-6-isopropoxy-2-pyridyl)-5-{[(S)-1-cyclopropylethylamino]methyl}-1-methyl-2-oxo-1,2-dihydronicotinamide] | > 7.00

The remaining lines, values ahead:

Row | pIC50 | Structure (SMILES)
29 | > 7.00 | COCCNCc1cc(C(=O)Nc2cc(-c3ccc(C#N)cc3C(=O)N3CC(F)(F)C3)cc(NC(C)C)n2)c(=O)n(C2CC2)c1 [Example 342]
30 | > 7.00 | CC(NCC1CC1)c1cc(C(=O)Nc2cc(-c3ccc(C#N)cc3C(=O)N3CC(F)(F)C3)cc(C3CC3)n2)c(=O)n(C2CC2)c1 (stereo not drawn) [Example 333]
31 | > 7.00 | CCNc1cc(-c2ccc(C#N)cc2C(=O)N2CC(F)(F)C2)cc(NC(=O)c2cc(CNCCOC)cn(C3CC3)c2=O)n1 [Example 346]
32 | > 7.00 | COc1ccc(-c2cc(NC(=O)c3cc(CNC[C@H](C)OC)cn(C4CC4)c3=O)nc(OCC(F)F)c2)c(C(=O)N2CC(F)(F)C2)c1 [Example 348]
33 | > 7.00 | CC1(NCc2cc(C(=O)Nc3cc(-c4ccc(C#N)cc4C(=O)N4CC(F)(F)C4)cc(C4CC4)n3)c(=O)n(C3CC3)c2)CCC1 [Example 390]
34 | > 7.00 | O=C(Nc1cc(-c2ccc(Cl)cc2C(=O)N2CC(F)(F)C2)cc(C2CC2)n1)c1cc(CNC[C@@H]2CCCO2)cn(C2CC2)c1=O [Example 378]
35 | > 7.00 | CO[C@@H](C)CNCc1cc(C(=O)Nc2cc(-c3ccc(OC(F)F)cc3C(=O)N3CC(F)(F)C3)cc(C)n2)c(=O)n(C2CC2)c1 [Example 338]
36 | > 7.00 | CO[C@@H](C)CNCc1cc(C(=O)Nc2cc(-c3ccc(F)cc3C(=O)N3CC(F)(F)C3)cc(OC(C)C)n2)c(=O)n(C)c1 [Example 387]
37 | > 7.00 | C[C@H](NCc1cc(C(=O)Nc2cc(-c3ccc(C#N)cc3C(=O)N3CC(F)(F)C3)cc(C3CC3)n2)c(=O)n(C)c1)[C@@H]1CCCO1 [Example 354]
38 | > 7.00 | O=C(Nc1cc(-c2ccc(Cl)cc2C(=O)N2CC(F)(F)C2)cc(C2CC2)n1)c1cc(CNC[C@@H]2CCCCO2)cn(C2CC2)c1=O [Example 398]
39 | > 7.00 | CO[C@@H](C)CNCc1cc(C(=O)Nc2cc(-c3ccc(C#N)cc3C(=O)N3CC(F)(F)C3)cc(OC(C)C)n2)c(=O)n(C2CC2)c1 [Example 339]
40 | > 7.00 | N#Cc1ccc(-c2cc(NC(=O)c3cc(CNCC4(F)CCC4)cn(C4CC4)c3=O)nc(C3CC3)c2)c(C(=O)N2CC(F)(F)C2)c1 [Example 400]
41 | > 7.00 | CO[C@@H](C)CNCc1cc(C(=O)Nc2cc(-c3c(F)cc(F)cc3C(=O)N3CC(F)(F)C3)cc(C3CC3)n2)c(=O)n(C2CC2)c1 [Example 367]
42 | > 7.00 | C[C@H](NCc1cc(C(=O)Nc2cc(-c3ccc(C#N)cc3C(=O)N3CC(F)(F)C3)cc(C3CC3)n2)c(=O)n(C2CC2)c1)C1CCC1 [Example 351]
43 | > 7.00 | CO[C@@H](C)CNCc1cc(C(=O)Nc2cc(-c3ccc(F)cc3C(=O)N3CC(F)(F)C3)cc(NC(C)C)n2)c(=O)n(C)c1 [Example 380]
44 | > 7.00 | CC(C)CNC(C)c1cc(C(=O)Nc2cc(-c3ccc(C#N)cc3C(=O)N3CC(F)(F)C3)cc(C3CC3)n2)c(=O)n(C2CC2)c1 (stereo not drawn) [Example 326]
45 | > 7.00 | O=C(Nc1cc(-c2ccc(OC(F)F)cc2C(=O)N2CC(F)(F)C2)cc(C2CC2)n1)c1cc(CNC[C@@H]2CCCCO2)cn(C2CC2)c1=O [Example 388]
46 | > 7.00 | CO[C@@H](C)CNCc1cc(C(=O)Nc2cc(-c3ccc(C)cc3C(=O)N3CC(F)(F)C3)cc(OCC(F)F)n2)c(=O)n(C2CC2)c1 [Example 349]
47 | > 7.00 | CO[C@@H](C)[C@H](C)NCc1cc(C(=O)Nc2cc(-c3ccc(Cl)cc3C(=O)N3CC(F)(F)C3)cc(C3CC3)n2)c(=O)n(C2CC2)c1 [Example 359]
48 | > 7.00 | N#Cc1ccc(-c2cc(NC(=O)c3cc(CNCCC(F)(F)F)cn(C4CC4)c3=O)nc(C3CC3)c2)c(C(=O)N2CC(F)(F)C2)c1 [Example 391]
